Measured values taken from patent publication US20250214942A1, “INHIBITORS OF RECEPTOR INTERACTING PROTEIN KINASE I FOR THE TREATMENT OF DISEASE” (Board of Regents, The University of Texas System, priority 2019, published 2025).
Where two headings read alike, the source gives them in different places.

Key:
[1] = system: human monocytic cell line U937; experiment: Human U937 cellular necroptosis assay (TNFalpha + z-VAD-FMK, Cell Titer-Glo viability); assay type: cell-based; conditions: U937 cells, 25 ng/mL human TNFalpha + 25 μM z-VAD-FMK, read-out: hU937 Avg IC50
Outline: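 Readout is CellTiter-Glo 2.0 luminescence after 22 h at 37° C with compound, in cells triggered by human TNFalpha (25 ng/mL) and z-VAD-FMK (25 μM) in phenol red-free RPMI/10% FBS. Values are run-averaged IC50s from a four-parameter logistic curve.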

RIPK1 = RIPK1 (Homo sapiens (Human), UniProt Q13546); experiment: ADP-Glo kinase assay (RIPK1 activity, conversion of ATP to ADP); assay type: biochemical; conditions: 5 nM RIPK1, 50 μM ATP, 6 h reaction; read-out: RIPK1 Enzyme Avg IC50
Chain of RIPK1 (Q13546 1-327): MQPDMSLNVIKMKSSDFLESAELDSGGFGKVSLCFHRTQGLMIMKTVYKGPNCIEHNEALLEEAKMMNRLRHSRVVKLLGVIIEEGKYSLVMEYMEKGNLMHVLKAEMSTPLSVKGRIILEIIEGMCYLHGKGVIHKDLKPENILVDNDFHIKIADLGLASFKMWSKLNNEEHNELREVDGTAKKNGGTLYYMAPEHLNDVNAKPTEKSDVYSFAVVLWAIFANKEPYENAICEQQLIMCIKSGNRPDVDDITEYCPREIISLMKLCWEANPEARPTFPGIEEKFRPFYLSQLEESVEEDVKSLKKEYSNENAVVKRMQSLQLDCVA
Outline: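 RIPK1 (5 nM final) was preincubated 10 min at rt with 1:3-diluted compounds in HEPES pH 7.5/MgCl2/DTT/BSA/CHAPS buffer. ATP (50 μM final) was then added for 6 h, and ADP formed was read by ADP-Glo luminescence. IC50 values came from four-parameter logistic fitting.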

Row | IC50 (RIPK1) [µM] | SMILES | IC50 ([1]; Homo sapiens, U-937, 22 h) [µM] | IC50 ([1]; 22 h) [µM]
1 | 0.018 | O=C(N1N=CCC1c1cc(F)cc(F)c1)C12CC(COc3ncc(F)cc3F)(C1)C2 (stereo not drawn) [Example 321, (5-(3,5-difluorophenyl)-4,5-dihydro-1H-pyrazol-1-yl)(3-(((3,5-difluoropyridin-2-yl)-oxy)methyl)bicyclo[1.1.1]-pentan-1-yl)methanone] | 0.045 | –
2 | 0.075 | COc1ccnc(OCC23CC(C(=O)N4N=CCC4c4cc(F)cc(F)c4)(C2)C3)n1 (stereo not drawn) [Example 327, (5-(3,5-difluorophenyl)-4,5-dihydro-1H-pyrazol-1-yl)(3-(((4-methoxypyrimidin-2-yl)oxy)methyl)bicyclo[1.1.1]-pentan-1-yl)methanone] | 0.381 | –
3 | 0.017 | N#Cc1ccc2c(cnn2CC23CC(C(=O)N4N=CCC4c4cncc(F)c4)(C2)C3)c1 (stereo not drawn) [Example 128, 1-((3-(5-(5-fluoropyridin-3-yl)-4,5-dihydro-1H-pyrazole-1-carbonyl)bicyclo[1.1.1]-pentan-1-yl)methyl)-1H-indazole-5-carbonitrile] | 0.048 | –
4 | 0.034 | O=C(N1N=CCC1c1cc(F)cc(F)c1)C12CC(Cn3cc4cccc(Cl)c4n3)(C1)C2 (stereo not drawn) [Example 58, (3-((7-chloro-2H-indazol-2-yl)methyl)bicyclo[1.1.1]-pentan-1-yl)(5-(3,5-difluoro-phenyl)-4,5-dihydro-1H-pyrazol-1-yl)methanone] | 0.16 | –
5 | 0.047 | N#Cc1cc2cn(CC34CC(C(=O)N5N=CCC5c5cc(F)cc(F)c5)(C3)C4)nc2cn1 (stereo not drawn) [Example 219, 2-((3-(5-(3,5-difluorophenyl)-4,5-dihydro-1H-pyrazole-1-carbonyl)bicyclo[1.1.1]pentan-1-yl)methyl)-2H-pyrazolo[3,4-c]pyridine-5-carbonitrile] | 0.292 | –
6 | 0.082 | COc1cnn(CC23CC(C(=O)N4N=CCC4c4cc(F)cc(F)c4)(C2)C3)c1 (stereo not drawn) [Example 160, (5-(3,5-difluorophenyl)-4,5-dihydro-1H-pyrazol-1-yl)(3-((4-methoxy-1H-pyrazol-1-yl)methyl)bicyclo[1.1.1]-pentan-1-yl)methanone] | 0.404 | –
7 | 0.021 | O=C(N1N=CCC1c1cc(F)cc(F)c1)C12CC(COc3cc(Cl)ncn3)(C1)C2 (stereo not drawn) [Example 7, (3-(((6-Chloropyrimidin-4-yl)oxy)methyl)bicyclo[1.1.1]pentan-1-yl)(5-(3,5-difluorophenyl)-4,5-dihydro-1H-pyrazol-1-yl)methanone] | 0.018 | –
8 | 0.056 | N#Cc1cc(OCC23CC(C(=O)N4CC(F)CC4c4cccc(F)c4)(C2)C3)ncn1 (stereo not drawn) [Example 92, 6-((3-(4-fluoro-2-(3-fluorophenyl)pyrrolidine-1-carbonyl)bicyclo[1.1.1]-pentan-1-yl)methoxy)-pyrimidine-4-carbonitrile] | 0.518 | –
9 | 0.022 | O=C(N1N=CCC1c1cc(F)cc(F)c1)C12CC(Cn3ncc4cccc(Cl)c43)(C1)C2 (stereo not drawn) [Example 69, (3-((7-chloro-1H-indazol-1-yl)methyl)bicyclo[1.1.1]-pentan-1-yl)(5-(3,5-difluoro-phenyl)-4,5-dihydro-1H-pyrazol-1-yl)methanone] | 0.044 | –
10 | 0.021 | O=C(N1N=CCC1c1cc(F)cc(F)c1)C12CC(Cn3ncc4ccncc43)(C1)C2 (stereo not drawn) [Example 87, (3-((1H-pyrazolo[3,4-c]-pyridin-1-yl)methyl)bicyclo-[1.1.1]pentan-1-yl)(5-(3,5-difluorophenyl)-4,5-dihydro-1H-pyrazol-1-yl)methanone] | 0.033 | –
11 | 0.023 | N#Cc1ccc2c(cnn2CC23CC(C(=O)N4CCC4c4ccccc4F)(C2)C3)c1 (stereo not drawn) [Example 248, 1-((3-(2-(2-fluorophenyl)-azetidine-1-carbonyl)bicyclo-[1.1.1]pentan-1-yl)methyl)-1H-indazole-5-carbonitrile] | 0.186 | –
12 | 0.046 | CN(CC12CC(C(=O)N3N=CCC3c3cc(F)cc(F)c3)(C1)C2)c1cc(C#N)ncn1 (stereo not drawn) [Example 162, 6-(((3-(5-(3,5-difluorophenyl)-4,5-dihydro-1H-pyrazole-1-carbonyl)-bicyclo[1.1.1]pentan-1-yl)methyl)(methyl)amino)pyrimidine-4-carbonitrile] | 0.21 | –
13 | 0.22 | N#Cc1cnc2cn(CC34CC(C(=O)N5N=CCC5c5cc(F)cc(F)c5)(C3)C4)nc2c1 (stereo not drawn) [Example 222, 2-((3-(5-(3,5-difluorophenyl)-4,5-dihydro-1H-pyrazole-1-carbonyl)bicyclo[1.1.1]pentan-1-yl)methyl)-2H-pyrazolo[4,3-b]pyridine-6-carbonitrile] | 1.1 | –
14 | 0.139 | Cc1ccc2c(cnn2CC23CC(C(=O)N4N=CCC4c4cncc(F)c4)(C2)C3)n1 (stereo not drawn) [Example 132, (5-(5-fluoropyridin-3-yl)-4,5-dihydro-1H-pyrazol-1-yl)(3-((5-methyl-1H-pyrazolo[4,3-b]pyridin-1-yl)methyl)-bicyclo[1.1.1]pentan-1-yl)methanone] | 0.826 | –
15 | 0.031 | O=C(N1N=CCC1c1cc(F)cc(F)c1)C12CC(COc3ccccc3Cl)(C1)C2 (stereo not drawn) [Example 336, (3-((2-chlorophenoxy)methyl)-bicyclo[1.1.1]pentan-1-yl)(5-(3,5-difluorophenyl)-4,5-dihydro-1H-pyrazol-1-yl)-methanone] | 0.055 | –
16 | 0.07 | O=C(N1N=CCC1c1cc(F)cc(F)c1)C12CC(Cn3cc4c(F)cccc4n3)(C1)C2 (stereo not drawn) [Example 21, (5-(3,5-Difluorophenyl)-4,5-dihydro-1H-pyrazol-1-yl)(3-((4-fluoro-2H-indazol-2-yl)methyl)bicyclo[1.1.1]pentan-1-yl)methanone] | 0.114 | –
17 | 0.024 | N#Cc1ccc2c(cnn2CC23CC(C(=O)N4N=CCC4c4ccccc4)(C2)C3)c1 (stereo not drawn) [Example 52, 1-((3-(5-phenyl-4,5-dihydro-1H-pyrazole-1-carbonyl)-bicyclo[1.1.1]pentan-1-yl)methyl)-1H-indazole-5-carbonitrile] | 0.016 | –
18 | 0.011 | O=C(N1N=CCC1c1cc(F)cc(F)c1)C12CC(Cn3ncc4ncccc43)(C1)C2 (stereo not drawn) [Example 65, (3-((1H-pyrazolo[4,3-b]-pyridin-1-yl)methyl)bicyclo-[1.1.1]pentan-1-yl)(5-(3,5-difluorophenyl)-4,5-dihydro-1H-pyrazol-1-yl)methanone] | – | 0.044
19 | 0.098 | Cc1c2ccccc2nn1CC12CC(C(=O)N3N=CCC3c3cc(F)cc(F)c3)(C1)C2 (stereo not drawn) [Example 152, (5-(3,5-difluorophenyl)-4,5-dihydro-1H-pyrazol-1-yl)(3-((3-methyl-2H-indazol-2-yl)-methyl)bicyclo[1.1.1]pentan-1-yl)methanone] | 0.363 | –
20 | 0.035 | COc1cccc(C(F)C23CC(C(=O)N4N=CCC4c4cc(F)cc(F)c4)(C2)C3)c1 (stereo not drawn) [Example 226, (5-(3,5-difluorophenyl)-4,5-dihydro-1H-pyrazol-1-yl)(3-(fluoro(3-methoxyphenyl)-methyl)bicyclo[1.1.1]pentan-1-yl)methanone] | 0.051 | –
21 | 0.0083 | N#Cc1cnc(OCC23CC(C(=O)N4N=CCC4c4cc(F)cc(F)c4)(C2)C3)cn1 (stereo not drawn) [Example 199, 5-((3-(5-(3,5-difluorophenyl)-4,5-dihydro-1H-pyrazole-1-carbonyl)bicyclo[1.1.1]pentan-1-yl)methoxy)pyrazine-2-carbonitrile] | 0.0093 | –
